# Measurements reported in patent US20050059615A1, “Transmucosal dosage forms for brain-targeted steroid chemical delivery systems” (priority 2003, published 2005).
# Assays:
# LH [1] = experiment: Plasma LH in ovariectomized female rats (radioimmunoassay); assay type: in vivo, Sprague Dawley rats
# Procedure: After recovery from surgery, ovariectomized female rats were divided into four groups and treated once a day for five days intravenously, via a bolus injection through the tail vein, as follows: (1) control, 27% HPβCD solution; (2) 0.003 mg/kg E2-CDS dissolved in 27% HPβCD solution; (3) 0.01 mg/kg E2-CDS dissolved in 27% HPβCD solution; and (4) 0.03 mg/kg E2-CDS dissolved in 27% HPβCD solution. A minimal number of ovariectomized (8 to 12) females were used per group. Intravenous treatments either with E2-CDS or HPβCD (controls) were carried out daily for 5 days beginning 2 days prior to the first day of behavior observations, in a volume of 0.05 mL/100 g body weight.
# An experienced and active male rat was placed in the arena 5 minutes prior to the female. […] The lordosis quotient (LQ) expresses the estrogen effect on sexual receptivity and was calculated as follows: LQ=100×number of lordoses/10 mounts The observation of the sexual behavior of each female was carried out, in the case of E2-CDS, every day for 22 days; in the case of EB, investigations were carried out every day for 10 days. […] Citrated blood samples were taken by retro-orbital sinus puncture under light ether anesthesia. The samples were stored at 4EC for one hour, then centrifuged at 1000 g for 10 minutes. Plasma was separated and stored at −80EC until assayed. Plasma LH concentrations from individual samples were measured by double antibody radioimmunoassay kits obtained from Amersham Pharmacia Biotech, Rome, Italy. […] The limit of detection was 15 pg/mL.
# (§1) Behavioral changes were analyzed using the Mann-Whitney U test (Siegel, Nonparametric Statistics for the Behavioral Sciences, New York; McGraw-Hill Book Company, Inc., 1956). The Fisher exact test was used for percentage comparisons (Zar, Biostatistical Analysis, Prentice Hall, Inc., Englewood Cliffs, N.J., 1974). Serum LH data were analyzed for each time and treatment group by analysis of variance (ANOVA) followed by Bonferroni posthoc test.
# LH [2] = experiment: Plasma LH in orchidectomized male rats (radioimmunoassay); assay type: in vivo, Sprague Dawley rats
# Procedure: (§2) Four weeks following orchidectomy, groups of rats were treated with one of the following drug doses via tail vein injection: E2-CDS 0.03, 0.3, and 3 mg/kg. Blood samples were collected by orbital sinus puncture under light ether anesthesia. The samples were stored at 4EC for one hour and centrifuged at 1,000 g for 10 minutes. Plasma was separated and stored at −80EC until assayed. Plasma LH concentrations from individual samples were measured by double antibody radioimmunoassay kits obtained from Amersham Pharmacia Biotech, Rome, Italy. […] The limit of detection was 15 pg/mL.
# as §1
# (§3) The testing described above was repeated using a dose of 0.03 mg/kg administered as a single i.v. injection, and a dose of 0.01 mg/kg with daily i.v. administration for 10 days. E2-CDS stock solution (40%) was diluted in 27% HPβCD solution.
# [3] = Phase I clinical study: safety and tolerance; assay type: in vivo, postmenopausal women; conditions: 2.86 mg buccal, 12 subjects, both regimens
# Excerpt: (§4) A brief evaluation of the results follows:
# castrated male rats [4] = experiment: Male rat sexual (copulatory) behavior after orchidectomy; assay type: in vivo, Sprague Dawley rats
# Procedure: Adult male Sprague Dawley rats (300-400 g) from Charles River Hungary Ltd., Godollo, Hungary, were used. Animals were kept in community cages (4 animals/cage) in a climate-controlled room (23∀2EC), with a 14 hour light, 10 hour dark cycle of artificial lighting, using reversed light/dark cycle. […] These hormones were dissolved in sunflower oil.
# After establishment of basal behaviors as discussed below, selected animals were orchidectomized via a single midventral incision and were rehoused.
# After repeated testing of animals recovered from orchidectomy as discussed below, rats were divided into four groups and treated intravenously, via a single tail vein injection, with one of the following: group 1: control (27% hydroxypropyl-β-cyclodextrin); group 2: 0.03 mg/kg E2-CDS; group 3: 0.3 mg/kg E2-CDS; and group 4: 3 mg/kg E2-CDS.
# Mating was observed during the dark cycle in a plexi observation cage in a room where only a dim red light was on. The male was placed in the observation cage 5 minutes prior to the female.
# The following parameters were then measured: • Mount latency (ML): the time from the introduction of the female to the initial mount or intromission; • Intromission latency (IL): the time from introduction of the female to the first intromission; and • Ejaculatory latency (EL): the time from the first intromission to ejaculation.
# Sessions were considered negative if IL exceeded 15 minutes.
# To establish basal behavior, each male was tested every 5 days until four successive and consistent behavioral patterns were achieved. This pretesting lasted for about four weeks. Approximately half of the animals tested were deemed suitable for orchidectomy.
# Twenty-eight days after healing from orchidectomy, the animals were tested again (Day 0) and divided into 4 experimental groups. Only animals displaying ejaculation latencies greater than 15 minutes were included in the study.
# Tests of male sexual behavior were conducted 3, 7, 14, 21, 28, 35 and 42 days after drug administration or until the effect disappeared, i.e. until no statistically significant difference was found between groups during two consecutive tests.
# Behavioral patterns and related times were recorded manually by skilled observers.
# as §1, §3
# The copulatory behavior of E2-CDS treated groups was compared to that of the HPβCD control group at 1, 3, 7, 14, and 21 days after i.v. drug administration in the 0.03 mg/kg group and at 1, 3, 7, 14 and 21 days after initial i.v. drug administration in the 0.01 mg/kg×10 days group.
# [5] = Plasma estradiol in orchidectomized male rats (radioimmunoassay); assay type: in vivo, Sprague Dawley rats; conditions: limit of detection 15 pg/mL
# Procedure: as §2, §1, §3
# FSH = experiment: Phase I clinical study: FSH suppression; assay type: in vivo, postmenopausal women; conditions: for suppression in FSH levels: first 24 hours post-dose, 2.86 mg buccal
# Excerpt: as §4
# castrated male rats [6] = conditions: single intravenous dose of 3 mg/kg; cited from earlier work
# [7] = 0.03 mg/kg single i.v., first study
# [8] = 0.01 mg/kg i.v. daily for 10 days
# [9] = 0.01 mg/kg i.v. daily for 10 days, by day 14
# [10] = 3.0 mg/kg single i.v., days 14, 21 and 28
compound,measurement,setting,value
"CN1C=CCC(C(=O)O[C@H]2CC[C@H]3[C@@H]4CCc5cc(O)ccc5[C@H]4CC[C@]23C)=C1 [E2-CDS, 17β-[(1-methyl-1,4-dihydro-3-pyridinyl)carbonyloxy]estra-1,3,5(10)-trien-3-ol]",duration of plasma LH suppression,LH [1]; 0.003 mg/kg i.v. daily for 5 days,up to 15 days
same,duration of statistically significant plasma LH suppression,LH [1]; 0.03 mg/kg i.v. daily for 5 days,up to 18 days
same,effect on plasma LH levels,"LH [1]; all dosage levels tested: 0.003, 0.01 and 0.03 mg/kg i.v. daily for 5 days",suppressed
same,plasma LH level,"LH [2]; 0.01 mg/kg, 10 daily i.v. injections, day 3 to day 14",significantly reduced
same,plasma LH levels,LH [2]; [7],not reduced
same,plasma LH level,"LH [2]; 0.03 mg/kg single injection, repeated examination, day 3 only",significantly reduced
same,plasma LH levels,"LH [2]; 0.3 mg/kg single i.v., days 1, 3 and 7",significantly reduced
same,plasma LH levels,"LH [2]; 3 mg/kg single i.v., throughout 28 days",suppressed significantly
same,adverse events (AEs) in total,[3],seven
same,seriousness of adverse events,[3],no serious AE was observed
same,intromission frequency,castrated male rats [4]; [8],not increased significantly
same,intromission latency,castrated male rats [4]; [8],reduced significantly
same,mount frequency,castrated male rats [4]; [8],increased significantly
same,mount latency,castrated male rats [4]; [8],reduced significantly
same,intromission performance restored (% of animals),castrated male rats [4]; [9],50%
same,mounting performance restored (% of animals),castrated male rats [4]; [9],67%
same,effect on re-establishment of copulatory behavior,castrated male rats [4]; 0.03 mg/kg single i.v.,no statistically significant effect
same,sexual activity,"castrated male rats [4]; 0.03 mg/kg single i.v., repeated testing","improved sexual activity, but it was not statistically significant"
same,mounting performance restored (% of the animals),"castrated male rats [4]; 0.3 mg/kg single i.v., by day 7",100%
same,mount frequency,"castrated male rats [4]; 0.3 mg/kg single i.v., day 7",significantly increased
same,mount latency,"castrated male rats [4]; 0.3 mg/kg single i.v., day 7 through day 28",sharply reduced
same,mounting performance restored (% of the animals),"castrated male rats [4]; 3.0 mg/kg single i.v., by day 14 and day 21",100%
same,mount latency,"castrated male rats [4]; 3.0 mg/kg single i.v., day 7 through day 28",sharply reduced
same,intromission performance,"castrated male rats [4]; 3.0 mg/kg single i.v., day 14 through day 28",improved in a statistically significant manner
same,mount frequency,"castrated male rats [4]; 3.0 mg/kg single i.v., days 7, 14, 21 and 28",significantly increased
same,intromission frequency,castrated male rats [4]; [10],statistically significant increase
same,intromission latency,castrated male rats [4]; [10],decrease
same,estradiol levels after treatment,[5]; 0.01 mg/kg daily for 10 days i.v.,below the limit of detection
same,estradiol levels after treatment,"[5]; 0.03 mg/kg single dose i.v., repeated study",below the limit of detection
same,estradiol levels after treatment,[5]; [7],below the limit of detection
same,estradiol levels after treatment,"[5]; 0.3 mg/kg single i.v., first study",below the limit of detection
same,post-study FSH levels below screening/baseline values,FSH; 72 hours after the last dose,14-25%
same,time of maximum FSH suppression,FSH; Group A,13.2±5.7 hours post-dose
same,time of maximum FSH suppression,FSH; Group B,11.8±5.8 hours post-dose
same,suppression in FSH levels,FSH; Group A,15%
same,suppression in FSH levels,FSH; Group B,16%
same,duration of improved masculine sexual behavior,castrated male rats [6],28 days
